According to PMC9679702, “BI 456906: Discovery and preclinical pharmacology of a novel GCGR/GLP-1R dual agonist with robust anti-obesity efficacy” (Molecular Metabolism, 2022):
Blank lines part the entries; values can stand above or below the compound they belong to.

Experiments:
Human GLP-1R [1] = biological target: T1, Human GLP-1R (Homo sapiens, UniProt P43220); test: cAMP stimulation in CHO-K1 cells expressing human GLP-1R (AlphaScreen); format: cell-based; settings: read-out: functional potency (EC50) in CHO-K1 cells, GLP-1R
T1 sequence (P43220 24-463): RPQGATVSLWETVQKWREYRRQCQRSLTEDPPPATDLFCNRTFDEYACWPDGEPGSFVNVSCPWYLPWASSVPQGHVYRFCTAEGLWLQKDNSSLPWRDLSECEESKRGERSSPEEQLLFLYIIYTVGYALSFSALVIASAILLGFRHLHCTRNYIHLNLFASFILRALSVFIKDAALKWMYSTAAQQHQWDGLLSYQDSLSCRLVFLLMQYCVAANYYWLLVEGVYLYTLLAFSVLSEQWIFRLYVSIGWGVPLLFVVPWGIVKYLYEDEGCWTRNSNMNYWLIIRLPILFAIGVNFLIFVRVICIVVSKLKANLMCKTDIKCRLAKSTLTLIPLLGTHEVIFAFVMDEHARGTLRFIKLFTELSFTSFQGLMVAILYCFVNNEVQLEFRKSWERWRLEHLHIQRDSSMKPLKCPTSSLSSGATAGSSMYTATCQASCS

endogenous mouse GLP-1R = biological target: T2, endogenous mouse GLP-1R (Mus musculus, UniProt O35659); test: cAMP stimulation in mouse insulinoma MIN6 cells; format: cell-based
T2 construct: The EC50 for the endogenous mouse GLP-1R was assessed in the insulinoma cell line MIN6; endogenous in cells; host or cells: MIN6 mouse insulinoma cells
T2 sequence (O35659 22-463): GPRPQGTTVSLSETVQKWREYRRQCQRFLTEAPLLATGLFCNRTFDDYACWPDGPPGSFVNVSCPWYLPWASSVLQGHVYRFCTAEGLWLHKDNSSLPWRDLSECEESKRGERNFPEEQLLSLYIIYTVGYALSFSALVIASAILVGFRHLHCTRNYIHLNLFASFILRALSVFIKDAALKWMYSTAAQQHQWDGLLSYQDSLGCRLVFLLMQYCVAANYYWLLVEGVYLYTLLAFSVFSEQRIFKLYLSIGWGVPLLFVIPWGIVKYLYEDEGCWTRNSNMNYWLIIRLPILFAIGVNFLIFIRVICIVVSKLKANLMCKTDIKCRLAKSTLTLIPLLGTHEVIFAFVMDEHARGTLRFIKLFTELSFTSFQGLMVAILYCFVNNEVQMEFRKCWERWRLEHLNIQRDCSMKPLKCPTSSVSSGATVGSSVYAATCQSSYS

Human GCGR [2] = biological target: T3, Human GCGR (Homo sapiens, UniProt P47871); test: cAMP stimulation in CHO-K1 cells expressing human GCGR (AlphaScreen); format: cell-based; settings: read-out: functional potency (EC50) in CHO-K1 cells, GCGR
T3 sequence (P47871 26-477): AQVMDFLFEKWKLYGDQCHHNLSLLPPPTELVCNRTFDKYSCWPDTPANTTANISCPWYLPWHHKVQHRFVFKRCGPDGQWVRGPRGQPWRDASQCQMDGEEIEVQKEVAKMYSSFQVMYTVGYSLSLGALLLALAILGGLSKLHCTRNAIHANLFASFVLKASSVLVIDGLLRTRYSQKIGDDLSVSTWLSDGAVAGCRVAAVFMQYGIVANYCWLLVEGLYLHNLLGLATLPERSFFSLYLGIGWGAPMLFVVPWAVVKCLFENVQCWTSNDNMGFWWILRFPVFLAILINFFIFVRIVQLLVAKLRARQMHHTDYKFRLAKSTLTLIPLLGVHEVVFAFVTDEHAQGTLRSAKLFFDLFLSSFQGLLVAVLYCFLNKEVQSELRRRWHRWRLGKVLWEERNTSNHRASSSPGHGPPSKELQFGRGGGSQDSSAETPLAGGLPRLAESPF

endogenous GCGR [3] = biological target: T4, endogenous GCGR (Homo sapiens, UniProt P47871); test: cAMP stimulation in primary human hepatocytes; format: cell-based; settings: 0.1% BSA, Figure 1B, read-out: cAMP pEC50±SD, Human Hepatocytes (converted)
T4 construct: endogenous in cells; host or cells: primary human hepatocytes
T4 sequence (P47871 26-477): as above

endogenous GCGR [4] = biological target: T5, endogenous GCGR (Mus musculus, UniProt Q61606); test: cAMP stimulation in primary mouse hepatocytes; format: cell-based; settings: 0.1% BSA, Figure 1B, read-out: cAMP pEC50±SD, Mouse Hepatocytes (converted)
T5 construct: endogenous in cells; host or cells: primary mouse hepatocytes
T5 sequence (Q61606 27-485): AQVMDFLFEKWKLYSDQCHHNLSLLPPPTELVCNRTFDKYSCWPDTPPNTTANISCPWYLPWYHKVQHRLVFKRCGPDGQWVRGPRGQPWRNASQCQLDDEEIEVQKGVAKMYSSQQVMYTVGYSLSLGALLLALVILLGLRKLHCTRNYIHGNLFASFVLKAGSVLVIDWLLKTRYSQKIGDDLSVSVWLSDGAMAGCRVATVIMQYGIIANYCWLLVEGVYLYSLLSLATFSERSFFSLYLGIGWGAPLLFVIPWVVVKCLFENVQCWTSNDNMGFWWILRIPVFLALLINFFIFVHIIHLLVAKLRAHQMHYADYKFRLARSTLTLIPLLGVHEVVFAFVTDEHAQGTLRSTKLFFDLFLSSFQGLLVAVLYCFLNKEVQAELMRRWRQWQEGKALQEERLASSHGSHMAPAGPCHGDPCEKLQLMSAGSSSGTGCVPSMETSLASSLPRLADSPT

endogenous GCGR [5] = biological target: T6, endogenous GCGR (Rattus norvegicus, UniProt P30082); test: cAMP stimulation in primary rat hepatocytes; format: cell-based; settings: 0.1% BSA, Figure 1B, read-out: cAMP pEC50±SD, Rat Hepatocytes (converted)
T6 construct: endogenous in cells; host or cells: primary rat hepatocytes
T6 sequence (P30082 27-485): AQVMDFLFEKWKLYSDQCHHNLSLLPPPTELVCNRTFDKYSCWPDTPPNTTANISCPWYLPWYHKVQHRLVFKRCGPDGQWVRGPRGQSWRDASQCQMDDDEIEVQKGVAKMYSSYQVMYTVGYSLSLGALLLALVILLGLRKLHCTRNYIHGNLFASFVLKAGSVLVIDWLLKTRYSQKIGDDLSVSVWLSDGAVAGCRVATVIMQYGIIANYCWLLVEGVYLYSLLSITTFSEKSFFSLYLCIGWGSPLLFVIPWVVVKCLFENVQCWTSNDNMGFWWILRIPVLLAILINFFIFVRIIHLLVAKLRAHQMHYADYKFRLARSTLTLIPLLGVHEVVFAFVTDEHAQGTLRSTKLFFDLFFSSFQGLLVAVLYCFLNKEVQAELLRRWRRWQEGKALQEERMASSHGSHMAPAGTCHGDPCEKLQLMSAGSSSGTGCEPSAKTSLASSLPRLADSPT

GCGR = biological target: T7, GCGR (Rattus norvegicus, UniProt P30082); test: Inhibition of glycogen synthesis in primary rat hepatocytes (14C-glucose incorporation); format: cell-based; settings: 0.1% BSA, 22.5 mM glucose, 180 min, Figure 1B, read-out: GSi pIC50±SD, Rat Hepatocytes (converted)
T7 construct: endogenous in cells; host or cells: primary rat hepatocytes
T7 sequence (P30082 27-485): as above

Human GCGR [6] = biological target: T3, Human GCGR; test: CRE-induced luciferase activity, HEK293 CRE-luc2P cells, human GCGR, in plasma; format: cell-based; settings: for EC50: n = 3
Human GLP-1R [7] = biological target: T1, Human GLP-1R; test: CRE-induced luciferase activity, HEK293 CRE-luc2P cells, human GLP-1R, in plasma; format: cell-based; settings: n = 3
Pharmacokinetics in mice = format: in vivo
Description: (§1) For pharmacokinetic analysis, male C57BL/6NRj mice (Janvier, France) were given a single intravenous (IV) or subcutaneous (SC) BI 456906 dose (20 nmol/kg; N = 3 per route). In addition, male Beagle dogs received an IV or SC dose of 5 nmol/kg or 10 nmol/kg (N = 3) BI 456906, respectively. Plasma samples were generated at different time points post dosing and stored at −20 °C until further analysis. Plasma concentrations of BI 456906 were measured using a liquid chromatography/tandem mass spectrometry (LC/MS/MS) method with a calibration range of 0.5–1000 nM on a QTRAP 6500+ (Sciex, Framingham, MA, USA). Samples were pre-treated with ethanol for protein precipitation before the analysis.

[8] = Pharmacokinetics in Beagle dogs; format: in vivo; settings: dog, SC injection, 10 nmol/kg, male Beagle dogs, N = 3, plasma, LC/MS/MS (Table S1)
Description: as §1

GLP-1R [9] = biological target: T8, GLP-1R (Mus musculus, UniProt O35659); test: Oral glucose tolerance test in lean mice, single dosing; format: in vivo
T8 construct: The acute potency of BI 456906 in engaging the GLP-1R was tested in lean mice after single dosing; tissue Janvier Labs; host or cells: whole animal: lean wild-type NMRI, C57BL6/J or B6J mice
T8 sequence (O35659 22-463): T2 sequence (O35659 22-463)

GLP-1R [10] = biological target: T8, GLP-1R; test: Intraperitoneal glucose tolerance test in lean mice, single dosing; format: in vivo; settings: read-out: ED50 ipGTT
GLP-1R [11] = biological target: T8, GLP-1R; test: Inhibition of acute food intake in lean NMRI mice; format: in vivo; settings: single SC dose, 24 h food intake
GLP-1R [12] = biological target: T8, GLP-1R; test: Acute gastric emptying (acetaminophen) in lean mice; format: in vivo
[13] = Energy expenditure study in diet-induced obese mice (indirect calorimetry, telemetry); format: in vivo
Description: Male C57BL/6J mice were obtained from Charles River Laboratories (Sulzfeld, Germany) at age 6–7 weeks. Animals were housed in groups of five in individually ventilated cages with a 12 h light/dark cycle (06:00–18:00) and were acclimatized for 1 week with ad libitum feeding. Animals were then fed a 45% HFD for 18 or 30 weeks, before randomization to groups with similar average bodyweight at Day −1. Animals were dosed QD with SC vehicle (25 mM phosphate-buffered saline) or BI 456906 (5, 10, or 20 nmol/kg) for 9 days, with energy metabolism, activity, and core body temperature measured each day. On Day 10, mice were sacrificed by cervical dislocation after a final bleeding by puncture of the retrobulbar venous plexus.
Energy metabolism was measured by indirect calorimetry. […] The mass flow of air through the respiratory cages and the concentrations of O2 and CO2 in inspired and expired air were measured every 10 min. […] Energy expenditure was analyzed by ANCOVA (see 2.16) for animals kept in single housing (dose groups 5 and 10 nmol/kg), applying statistical analysis using a general linear model framework including bodyweight as a covariate. […] Therefore, the regression-based ANCOVA was not calculated. Core body temperature and activity were measured by sensors (model 10TA10TA-F10; Data Sciences International, New Brighton, MA, USA) implanted in the peritoneal cavities. […]

Human GCGR [14] = biological target: T3, Human GCGR; test: Ex vivo bioactivity assay, HEK cells with human GCGR and CRE-luciferase, 100% mouse plasma; settings: DIO mice, plasma at study end, maximal dose of 30 nmol/kg
Human GLP-1R [15] = biological target: T1, Human GLP-1R; test: Ex vivo bioactivity assay, HEK cells with human GLP-1R and CRE-luciferase, 100% mouse plasma
[16] = biological target: endogenous mouse GLP-1R (mouse (endogenous in MIN6)) (UniProt O35659)
[17] = biological target: human glucagon receptor (human) (UniProt P47871)
Chain of human glucagon receptor (human) (P47871 26-477): as the sequence (P47871 26-477) above

[18] = biological target: human glucagon-like peptide-1 receptor (human) (UniProt P43220)
Chain of human glucagon-like peptide-1 receptor (human) (P43220 24-463): as the sequence (P43220 24-463) above

[19] = biological target: human glucagon receptor (human) (UniProt P47871); remark: listed apart in the source
[20] = biological target: human glucagon-like peptide-1 receptor (human) (UniProt P43220); remark: listed apart in the source

Compound: CC[C@H](C)[C@H](NC(=O)[C@H](Cc1ccccc1)NC(=O)[C@H](CC(=O)O)NC(=O)[C@H](CCCCN)NC(=O)[C@H](C)NC(=O)[C@H](C)NC(=O)[C@H](CCCNC(=N)N)NC(=O)[C@H](CCC(=O)O)NC(=O)[C@H](CC(=O)O)NC(=O)[C@H](CC(C)C)NC(=O)[C@H](Cc1ccc(O)cc1)NC(=O)[C@H](CCCCN)NC(=O)[C@H](CO)NC(=O)[C@H](Cc1ccc(O)cc1)NC(=O)[C@H](CC(=O)O)NC(=O)[C@H](CO)NC(=O)[C@@H](NC(=O)[C@H](Cc1ccccc1)NC(=O)[C@@H](NC(=O)CNC(=O)[C@H](CCC(N)=O)NC(=O)C1(NC(=O)[C@@H](N)Cc2c[nH]cn2)CCC1)[C@@H](C)O)[C@@H](C)O)C(=O)N[C@@H](CCCCNC(=O)CNC(=O)CNC(=O)[C@H](CO)NC(=O)CNC(=O)[C@H](CO)NC(=O)CNC(=O)CC[C@H](NC(=O)CCCCCCCCCCCCCCCCC(=O)O)C(=O)O)C(=O)N[C@@H](Cc1c[nH]c2ccccc12)C(=O)N[C@@H](CC(C)C)C(=O)N[C@@H](CCC(=O)O)C(=O)N[C@@H](CO)C(=O)N[C@@H](C)C(N)=O [BI 456906]
EC50 (Human GLP-1R [1]): 0.33 nM
EC50 (endogenous mouse GLP-1R): 0.36 nM
EC50 (Human GCGR [2]): 0.52 nM
EC50 (endogenous GCGR [3]): 537 nM
EC50 (endogenous GCGR [4]): 407 nM
EC50 (endogenous GCGR [5]): 18.6 nM
IC50 (GCGR): 0.437 nM
fold less potent at the GCGR in relation to endogenous glucagon (Human GCGR [6]; 0.5% human and mouse plasma): ~6 fold
EC50 (Human GCGR [6]; Human GCGR HEK293 Cre-Luc EC50, Human Plasma 0.5%, 0.5% human plasma in KRBH, 4 h 37 °C): 0.29 nM
EC50 (Human GCGR [6]; Human GCGR HEK293 Cre-Luc EC50, Human Plasma 100%, 100% human plasma, 4 h 37 °C): 8.3 nM
EC50 (Human GCGR [6]; Human GCGR HEK293 Cre-Luc EC50, Mouse Plasma 0.5%, 0.5% mouse plasma in KRBH, 4 h 37 °C): 0.17 nM
EC50 (Human GCGR [6]; Human GCGR HEK293 Cre-Luc EC50, Mouse Plasma 100%, 100% mouse plasma, 4 h 37 °C): 16 nM
EC50 (Human GCGR [6]; Human GCGR HEK293 Cre-Luc pEC50±SD, Human Plasma 0.5%, 0.5% human plasma): 0.288 nM
EC50 (Human GCGR [6]; Human GCGR HEK293 Cre-Luc pEC50±SD, Human Plasma 100%, 100% human plasma): 8.32 nM
EC50 (Human GCGR [6]; Human GCGR HEK293 Cre-Luc pEC50±SD, Mouse Plasma 0.5%, 0.5% mouse plasma): 0.17 nM
EC50 (Human GCGR [6]; Human GCGR HEK293 Cre-Luc pEC50±SD, Mouse Plasma 100%, 100% mouse plasma): 15.5 nM
EC50 (Human GLP-1R [7]; Human GLP-1R HEK293 Cre-Luc EC50, Mouse Plasma 100%, 100% mouse plasma, 4 h 37 °C): 1.6 nM
EC50 (Human GLP-1R [7]; Human GLP-1R HEK293 Cre-Luc pEC50±SD, Human Plasma 0.5%, 0.5% human plasma): 0.0148 nM
EC50 (Human GLP-1R [7]; Human GLP-1R HEK293 Cre-Luc pEC50±SD, Human Plasma 100%, 100% human plasma): 1 nM
EC50 (Human GLP-1R [7]; Human GLP-1R HEK293 Cre-Luc pEC50±SD, Mouse Plasma 0.5%, 0.5% mouse plasma): 0.00759 nM
EC50 (Human GLP-1R [7]; Human GLP-1R HEK293 Cre-Luc pEC50±SD, Mouse Plasma 100%, 100% mouse plasma): 1.62 nM
terminal half-life in mouse plasma compared with semaglutide (in words) (Pharmacokinetics in mice; mouse pharmacokinetic profiles (Table S1)): longer terminal half-life
Tmax (Pharmacokinetics in mice; mouse, SC injection, 20 nmol/kg single dose, male C57BL/6NRj mice, N = 3, plasma, LC/MS/MS (Table S1)): 7 h
MRT (Pharmacokinetics in mice; mouse, SC injection, 20 nmol/kg single dose, male C57BL/6NRj mice, N = 3, plasma, LC/MS/MS (Table S1), read-out: mean residence time): 44 h
Tmax [8]: 51 h
MRT ([8]; read-out: mean residence time): 140 h
ED50 (GLP-1R [9]): 0.0021 µmol/kg
ED50 (GLP-1R [10]): 0.004 µmol/kg
ED50 (GLP-1R [11]): 0.09 µmol/kg
ED50 (GLP-1R [12]; mouse, sc): 0.041 µmol/kg
inhibition of gastric emptying, effective doses (in words) (GLP-1R [12]; reduced acetaminophen excursion, single SC dose, lean mice): effective only at higher doses of 100 and 300 nmol/kg
energy expenditure (in words) ([13]; DIO mice, 5, 10 or 20 nmol/kg SC QD for 9 days, indirect calorimetry): dose-dependent increase in energy expenditure
core body temperature and activity (in words) ([13]; DIO mice, therapeutic doses, implanted sensors): did not increase core body temperature or activity
ex vivo bioequivalence over EC50, GCGR (Human GCGR [14]): < 100 fold
EC50 (Human GLP-1R [15]): 2.4 nM
ex vivo bioequivalence over EC50, GLP-1R (Human GLP-1R [15]; DIO mice, plasma at study end, maximal dose of 30 nmol/kg): less than 1000 fold

EC50 of cAMP generation, mouse insulinoma MIN6 cells (endogenous receptor) [16]: 0.36 nM
EC50 of cAMP generation (AlphaScreen cAMP assay), CHO-K1 cells expressing human GCGR, 0.1% BSA [17]: 0.52 nM
EC50 of cAMP generation (AlphaScreen cAMP assay), CHO-K1 cells expressing human GLP-1R, 0.1% BSA [18]: 0.33 nM
EC50 in the CRE-luciferase assay, HEK293 CRE-luc2P cells expressing recombinant GCGR, 0.5% human plasma [19]: 0.29 nM
EC50 in the CRE-luciferase assay, HEK293 CRE-luc2P cells expressing recombinant GCGR, 0.5% mouse plasma [19]: 0.17 nM
EC50 in the CRE-luciferase assay, HEK293 CRE-luc2P cells expressing recombinant GCGR, 100% human plasma [19]: 8.3 nM
EC50 in the CRE-luciferase assay, HEK293 CRE-luc2P cells expressing recombinant GCGR, 100% mouse plasma [19]: 16 nM
EC50 in the CRE-luciferase assay, HEK293 CRE-luc2P cells expressing recombinant GLP-1R, 100% human plasma [20]: 1 nM
EC50 in the CRE-luciferase assay, HEK293 CRE-luc2P cells expressing recombinant GLP-1R, 100% mouse plasma [20]: 1.6 nM
Compound: BI 456906 (peptide)

EC50 of cAMP generation, mouse insulinoma MIN6 cells (endogenous receptor) [16]: 0.06 nM
Compound: glucagon-like peptide-1
